Read-outs that look alike come from different tables or passages of the source.
System: HIV-1
Experiment: Breakthrough of mutant HIV-1 strains in CEM cell cultures, single drugs and double/triple combinations
Type: cell-based
Settings: for activity at 0.04 µg/mL / activity at 0.1 µg/mL / activity at 0.25 µg/mL: Human immunodeficiency virus 1, CCRF-CEM, read-out: HIV-1-induced syncytium formation in CEM cells; for activity at 0.04 µg/mL: single drug 0.04 μg/ml; for activity at 0.1 µg/mL: single drug 0.10 μg/ml; for activity at 0.25 µg/mL: single drug 0.25 μg/ml
Description: The culture medium consisted of RPMI 1640 containing 10% fetal bovine serum, 2 mM L-glutamine, and 0.075% NaHCO3. The multiplicity of the initial infection was ~1000 times the CCID50 (50% cell culture infective dose). Passages were performed every 3 to 4 days by adding 0.5 to 1.0 ml of the infected culture supernatant to 5 ml of a suspension containing 4×10^5 uninfected CEM cells per ml. Syncytium formation was used as a parameter of virus breakthrough in the cell cultures. In the drug combination experiments, the compounds were combined at the same initial concentrations as used for the two lowest concentrations in the single-drug experiments.
Compound IV, BHAP and TSAO-m^3 T were added to HIV-1-infected CEM cell cultures at 0.04, 0.10 and 0.25 ug/ml (Compound IV and BHAP) or 1.0, 2.5 and 5.0 μg/ml (TSAO-m^3 T). In addition, various double- and triple-drug combinations of Compound IV, BHAP and TSAO-m^3 T were performed, combining these inhibitors at their lowest (0.04 μg/ml) or intermediary (0.1 μg/ml) concentration as used in the single-drug experiments.

## Cc1occc1C(=S)Nc1ccc(Cl)c(C(=O)OC2CCCC2)c1 [Compound IV]
96 h, day 4 post infection
  activity at 0.04 µg/mL: 0%
  activity at 0.1 µg/mL: 0%
  activity at 0.25 µg/mL: 0%
168 h, day 7 post infection
  activity at 0.04 µg/mL: 0%
  activity at 0.1 µg/mL: 0%
  activity at 0.25 µg/mL: 0%
264 h, day 11 post infection
  activity at 0.04 µg/mL: 6.25%
  activity at 0.1 µg/mL: 0%
  activity at 0.25 µg/mL: 0%
336 h, day 14 post infection
  activity at 0.04 µg/mL: 12.5%
  activity at 0.1 µg/mL: 6.25%
  activity at 0.25 µg/mL: 0%
432 h, day 18 post infection
  activity at 0.04 µg/mL: 100%
  activity at 0.1 µg/mL: 6.25%
  activity at 0.25 µg/mL: 0%
504 h, day 21 post infection
  activity at 0.04 µg/mL: 100%
  activity at 0.1 µg/mL: 87.5%
  activity at 0.25 µg/mL: 3.12%
600 h, day 25 post infection
  activity at 0.04 µg/mL: 100%
  activity at 0.1 µg/mL: 87.5%
  activity at 0.25 µg/mL: 19%
672 h, day 28 post infection
  activity at 0.04 µg/mL: 100%
  activity at 0.1 µg/mL: 100%
  activity at 0.25 µg/mL: 75%
768 h, day 32 post infection
  activity at 0.04 µg/mL: 100%
  activity at 0.1 µg/mL: 100%
  activity at 0.25 µg/mL: 100%
840 h, day 35 post infection
  activity at 0.04 µg/mL: 100%
  activity at 0.1 µg/mL: 100%
  activity at 0.25 µg/mL: 100%
936 h, day 39 post infection
  activity at 0.04 µg/mL: 100%
  activity at 0.1 µg/mL: 100%
  activity at 0.25 µg/mL: 100%
1008 h, day 42 post infection
  activity at 0.04 µg/mL: 100%
  activity at 0.1 µg/mL: 100%
  activity at 0.25 µg/mL: 100%
1104 h, day 46 post infection
  activity at 0.04 µg/mL: 100%
  activity at 0.1 µg/mL: 100%
  activity at 0.25 µg/mL: 100%
1176 h, day 49 post infection
  activity at 0.04 µg/mL: 100%
  activity at 0.1 µg/mL: 100%
  activity at 0.25 µg/mL: 100%
1272 h, day 53 post infection
  activity at 0.04 µg/mL: 100%
  activity at 0.1 µg/mL: 100%
  activity at 0.25 µg/mL: 100%
1344 h, day 56 post infection
  activity at 0.04 µg/mL: 100%
  activity at 0.1 µg/mL: 100%
  activity at 0.25 µg/mL: 100%
1440 h, day 60 post infection
  activity at 0.04 µg/mL: 100%
  activity at 0.1 µg/mL: 100%
  activity at 0.25 µg/mL: 100%
1536 h, day 64 post infection
  activity at 0.04 µg/mL: 100%
  activity at 0.1 µg/mL: 100%
  activity at 0.25 µg/mL: 100%
1608 h, day 67 post infection
  activity at 0.04 µg/mL: 100%
  activity at 0.1 µg/mL: 100%
  activity at 0.25 µg/mL: 100%
1704 h, day 71 post infection
  activity at 0.04 µg/mL: 100%
  activity at 0.1 µg/mL: 100%
  activity at 0.25 µg/mL: 100%
1776 h, day 74 post infection
  activity at 0.04 µg/mL: 100%
  activity at 0.1 µg/mL: 100%
  activity at 0.25 µg/mL: 100%
1848 h, day 77 post infection
  activity at 0.04 µg/mL: 100%
  activity at 0.1 µg/mL: 100%
  activity at 0.25 µg/mL: 100%
Single drug, highest concentration
  virus breakthrough delayed till day: 21 days

— patent US5968910A, “Compositions containing two or three inhibitors of different HIV reverse transcriptases” (priority 1994, dated 1999)
